# Reference: US20150038527A1, “FUROPYRIDINE DERIVATIVES” (Merck Patent GmbH, priority 2012, published 2015)
# Target: T1, SYK (Homo sapiens, UniProt P43405)
# T1 construct: 2.5 nM SYK, 400 nM Biotin-Aha-Aha-KEDPDYEWPSAKK and 10 μM ATP
# Assay: SYK Flash Plate Assay (enzyme assay)
# Format: biochemical
# Procedure: The kinase assay is performed either as 384-well Flashplate assay (for e.g. Topcount measurement) or as 384-well Image-Flashplate assay (for LEADseeker measurement).
# 2.5 nM SYK, 400 nM Biotin-Aha-Aha-KEDPDYEWPSAKK and 10 μM ATP (spiked with 0.3 μCi 33P-ATP/well) are incubated in a total volume of 50 μl (60 mM Hepes, 10 mM MgCl2, 1.2 mM Dithiothreitol, 0.02% Brij35, 0.1% BSA, pH 7.5) with or without test compound for 1 hours at 30° C. The reaction is stopped with 25 μl 200 mM EDTA. After 30 Min at 30° C. the liquid is removed and each well washed thrice with 100 μl 0.9% sodium chloride solution. Non-specific reaction is determined in presence of 0.1 μM Staurosporine. Radioactivity is measured with Topcount (when using Flashplates) or with LEADseeker (when using Image-Flashplates) respectively. Results (e.g. IC50-values) are calculated with program tools provided by the IT-department (e.g. Symyx Assay Explorer, Genedata Screener).
row,IC50 [nM],Structure (SMILES)
1,300 to 3000,"COc1ccc(C(=O)NCC(C)(C)N)cc1-c1cc2nccc(-c3c(OC)cccc3OC)c2o1 [Compound A68, N-(2-amino-2-methyl-propyl)-3-[7-(2,6-dimethoxy-phenyl)-furo[3,2-b]pyridin-2-yl]-4-methoxy-benzamide]"
2,300 to 3000,"COCC(O)CNC(=O)c1ccc(OC)c(-c2cc3nccc(-c4c(OC)cccc4OC)c3o2)c1 (stereo not shown) [Compound A69, 3-[7-(2,6-dimethoxy-phenyl)-furo[3,2-b]pyridin-2-yl]-N-(2-hydroxy-3-methoxypropyl)-4-methoxy-benzamide]"
3,300 to 3000,"COc1ccc(C(=O)NCC(O)CO)cc1-c1cc2nccc(-c3c(OC)cccc3OC)c2o1 (stereo not shown) [Compound A70, N-(2,3-dihydroxy-propyl)-3-[7-(2,6-dimethoxy-phenyl)-furo[3,2-b]pyridin-2-yl]-4-methoxy-benzamide]"
4,300 to 3000,"COc1ccc(C(=O)NCCN)cc1-c1cc2nccc(-c3c(OC)cccc3OC)c2o1 [Compound A71, N-(2-amino-ethyl)-3-[7-(2,6-dimethoxy-phenyl)-furo[3,2-b]pyridin-2-yl]-4-methoxy-benzamide]"
5,< 100,"COc1ccc(C(N)=O)cc1-c1cc2nccc(-c3cc[nH]n3)c2o1 [Compound A72, 4-methoxy-3-[7-(1H-pyrazol-3-yl)-furo[3,2-b]pyridin-2-yl]-benzamide]"
6,3000 to 50000,"NC(=O)c1ccc(-c2cc3nccc(-c4cccc(C(=O)N[C@@H]5CCCC[C@@H]5N)c4)c3o2)c(F)c1 [Compound A73, 4-{7-[3-((1R,2S)-2-amino-cyclohexylcarbamoyl)-phenyl]-furo[3,2-b]pyridin-2-yl}-3-fluoro-benzamide]"
7,3000 to 50000,"COc1cccc(OC)c1-c1ccnc2cc(-c3cc(C(N)=O)ccc3C(C)C)oc12 [Compound A74, 3-[7-(2,6-dimethoxy-phenyl)-furo[3,2-b]pyridin-2-yl]-4-isopropyl-benzamide]"
8,3000 to 50000,"COc1cc(-c2cc3nccc(NC(=O)NC4CCCCC4N)c3o2)cc(OC)c1OC (stereo not shown) [Compound A75, 1-(2-amino-cyclohexyl)-3-[2-(3,4,5-trimethoxy-phenyl)-furo[3,2-b]pyridin-7-yl]-urea]"
9,< 100,"COc1ccc(C(N)=O)cc1-c1cc2nccc(-c3c(OC)cc(C(=O)NCCN)cc3OC)c2o1 [Compound A76, N-(2-amino-ethyl)-4-[2-(5-carbamoyl-2-methoxy-phenyl)-furo[3,2-b]pyridin-7-yl]-3,5-dimethoxy-benzamide]"
10,300 to 3000,"COc1ccc(C(N)=O)cc1-c1cc2nccc(-c3cc(S(N)(=O)=O)ccc3OC)c2o1 [Compound A77, 4-methoxy-3-[7-(2-methoxy-5-sulfamoyl-phenyl)-furo[3,2-b]pyridin-2-yl]-benzamide]"
11,300 to 3000,"COc1ccc(S(N)(=O)=O)cc1-c1cc2nccc(-c3c(OC)cccc3OC)c2o1 [Compound A78, 3-[7-(2,6-dimethoxy-phenyl)-furo[3,2-b]pyridin-2-yl]-4-methoxybenzenesulfonamide]"
12,300 to 3000,"COc1ccc(C(N)=O)cc1-c1cc2nccc(-c3cc(C(=O)NCCN)ccc3OC)c2o1 [Compound A79, 3-[7-[5-(2-aminoethylcarbamoyl)-2-methoxy-phenyl]furo[3,2-b]pyridin-2-yl]-4-methoxy-benzamide]"
13,< 100,"COc1ccc(C(N)=O)cc1-c1cc2nccc(-c3ccnc(NCCN)c3)c2o1 [Compound A80, 3-{7-[2-(2-amino-ethylamino)-pyridin-4-yl]-furo[3,2-b]pyridin-2-yl}-4-methoxybenzamide]"
14,< 100,"COc1ccc(C(N)=O)cc1-c1cc2nccc(-c3ccnc(NC4CCCCC4N)c3)c2o1 (stereo not shown) [Compound A81, 3-{7-[2-(2-amino-cyclohexylamino)-pyridin-4-yl]-furo[3,2-b]pyridin-2-yl}-4-methoxy-benzamide]"
15,< 100,"COc1ccc(S(N)(=O)=O)cc1-c1cc2nccc(-c3cc[nH]n3)c2o1 [Compound A82, 4-methoxy-3-[7-(1H-pyrazol-3-yl)-furo[3,2-b]pyridin-2-yl]-benzenesulfonamide]"
16,< 100,"COc1cc(-c2cc3nccc(-c4cc[nH]c4)c3o2)cc(OC)c1OC [Compound A83, 7-(1H-pyrrol-3-yl)-2-(3,4,5-trimethoxy-phenyl)-furo[3,2-b]pyridine]"
17,< 100,"COc1ccc(-c2nnn[nH]2)cc1-c1cc2nccc(-c3c(OC)cccc3OC)c2o1 [Compound A84, 7-(2,6-dimethoxy-phenyl)-2-[2-methoxy-5-(1H-tetrazol-5-yl)-phenyl]-furo[3,2-b]pyridine]"
18,< 100,"COc1ccc(-c2ncon2)cc1-c1cc2nccc(-c3c(OC)cccc3OC)c2o1 [Compound A85, 7-(2,6-dimethoxy-phenyl)-2-(2-methoxy-5-[1,2,4]oxadiazol-3-yl-phenyl)furo[3,2-b]pyridine]"
19,3000 to 50000,"COc1cc(-c2cc3nccc(N=[N+]=[N-])c3o2)cc(OC)c1OC [Compound A86, 7-azido-2-(3,4,5-trimethoxy-phenyl)-furo[3,2-b]pyridine]"

row,IC50 [nM],Structure (SMILES)
1,300 to 3000,"COc1cc2[nH]cnc2cc1-c1ccnc2cc(-c3cc(OC)c(OC)c(OC)c3)oc12 [Compound A87, 7-(6-methoxy-1H-benzoimidazol-5-yl)-2-(3,4,5-trimethoxy-phenyl)-furo[3,2-b]pyridine]"
2,< 100,"COc1ccc(C#N)cc1-c1cc2nccc(-c3cc[nH]n3)c2o1 [Compound A88, 4-methoxy-3-[7-(1H-pyrazol-3-yl)-furo[3,2-b]pyridin-2-yl]-benzonitrile]"
3,300 to 3000,"COc1ccc(C(N)=O)cc1-c1cc2nccc(-c3cc4[nH]cnc4cc3OC)c2o1 [Compound A89, 4-Methoxy-3-[7-(6-methoxy-3H-benzoimidazol-5-yl)-furo[3,2-b]pyridin-2-yl]-benzamide]"
4,< 100,"COc1ccc(C(N)=O)cc1-c1cc2nccc(-c3ccnc(NC[C@H]4CCCNC4)c3)c2o1 [Compound A90, 4-methoxy-3-(7-{2-[((S)-1-piperidin-3-ylmethyl)-amino]-pyridin-4-yl}-furo[3,2-b]pyridin-2-yl)-benzamide]"
5,100 to 300,"COc1cc(-c2cc3nccc(-c4cnc[nH]4)c3o2)cc(OC)c1OC [Compound A91, 7-(3H-imidazol-4-yl)-2-(3,4,5-trimethoxy-phenyl)-furo[3,2-b]pyridine]"
6,< 100,"COc1ccc(-c2ncon2)cc1-c1cc2nccc(-c3cc[nH]n3)c2o1 [Compound A92, 2-(2-methoxy-5-[1,2,4]oxadiazol-3-yl-phenyl)-7-(1H-pyrazol-3-yl)-furo[3,2-b]pyridine]"
7,100 to 300,"COc1ccc(C(N)=O)cc1-c1cc2nccc(-c3cnc[nH]3)c2o1 [Compound A93, 3-[7-(3H-imidazol-4-yl)-furo[3,2-b]pyridin-2-yl]-4-methoxy-benzamide]"
8,100 to 300,"COc1ccc(C(N)=O)cc1-c1cc2nccc(-c3cc[nH]c3)c2o1 [Compound A94, 4-methoxy-3-[7-(1H-pyrrol-3-yl)-furo[3,2-b]pyridin-2-yl]-benzamide]"
9,100 to 300,"COc1ccc(C(N)=O)cc1-c1cc2nccc(-c3ccc(C(=O)NCCN)cc3OC)c2o1 [Compound A95, N-(2-aminoethyl)-4-[2-(5-carbamoyl-2-methoxy-phenyl)furo[3,2-b]pyridin-7-yl]-3-methoxy-benzamide]"
10,< 100,"COc1ccc(C(N)=O)cc1-c1cc2nccc(-c3ccnc(N[C@H]4CCCC[C@H]4N)c3)c2o1 [Compound A96, 3-{7-[2-((1S,2R)-2-amino-cyclohexylamino)-pyridin-4-yl]-furo[3,2-b]pyridin-2-yl}-4-methoxy-benzamide]"
11,< 100,"COc1ccc(C(N)=O)cc1-c1cc2nccc(-c3ccnc(N[C@@H]4CCCC[C@@H]4N)c3)c2o1 [Compound A97, 3-{7-[2-((1R,2S)-2-amino-cyclohexylamino)-pyridin-4-yl]-furo[3,2-b]pyridin-2-yl}-4-methoxy-benzamide]"
12,300 to 3000,"COc1cc(-c2cc3nccc(C(N)=O)c3o2)cc(OC)c1OC [Compound A98, 2-(3,4,5-trimethoxy-phenyl)-furo[3,2-b]pyridine-7-carboxylic acid amide]"
13,300 to 3000,"COc1cc(-c2cc3nccc(-c4nnc(C)o4)c3o2)cc(OC)c1OC [Compound A99, 7-(5-methyl-[1,3,4]oxadiazol-2-yl)-2-(3,4,5-trimethoxy-phenyl)-furo[3,2-b]pyridine]"
14,300 to 3000,"COc1ccc([C@@H](C)N)cc1-c1ccnc2cc(-c3cc(OC)c(OC)c(OC)c3)oc12 [Compound A100, (R)-1-{4-methoxy-3-[2-(3,4,5-trimethoxy-phenyl)-furo[3,2-b]pyridin-7-yl]-phenyl}-ethylamine]"
15,300 to 3000,"COc1ccc([C@H](C)N)cc1-c1ccnc2cc(-c3cc(OC)c(OC)c(OC)c3)oc12 [Compound A101, (S)-1-{4-methoxy-3-[2-(3,4,5-trimethoxy-phenyl)-furo[3,2-b]pyridin-7-yl]-phenyl}-ethylamine]"
16,3000 to 50000,"COc1cc(-c2cc3nccc(-c4nnc(CCN)o4)c3o2)cc(OC)c1OC [Compound A102, 2-{5-[2-(3,4,5-trimethoxy-phenyl)-furo[3,2-b]pyridin-7-yl]-[1,3,4]oxadiazol-2-yl}-ethylamine]"
17,< 100,"COc1cc(-c2cc3nccc(-c4c(OC)cncc4OC)c3o2)cc(OC)c1OC [Compound A103, 7-(3,5-dimethoxy-pyridin-4-yl)-2-(3,4,5-trimethoxy-phenyl)-furo[3,2-b]pyridine]"
18,100 to 300,"COc1ccc(C(N)=O)cc1-c1cc2nccc(-c3c(OC)cncc3OC)c2o1 [Compound A104, 3-[7-(3,5-dimethoxy-pyridin-4-yl)-furo[3,2-b]pyridin-2-yl]-4-methoxybenzamide]"
